Measured values taken from ChEMBL document CHEMBL3044696, “Synthesis, antimalarial-, and antibacterial activity evaluation of some new 4-aminoquinoline derivatives” (2013).

Key:
Plasmodium falciparum [1] = experiment: Antimalarial activity against chloroquine-sensitive Plasmodium falciparum 3D7 infected human RBC assessed as dead ring and trophozoite stage of parasite at 50 ug/mL after 40 hr by Giemsa staining-based light microscopic analysis relative to control; assay type: functional
Staphylococcus aureus [2] = experiment: Antibacterial activity against Staphylococcus aureus ATCC BAA 1026 assessed as growth inhibition at 25 ug/disk after 24 hr by Kirby-Bauer disk diffusion method; assay type: functional; conditions: ATCC BAA 1026, 24 h, read-out: DIZ
Bacillus cereus [3] = experiment: Antibacterial activity against Bacillus cereus ATCC 10876 assessed as growth inhibition at 25 ug/disk after 24 hr by Kirby-Bauer disk diffusion method; assay type: functional; conditions: ATCC 10876, 24 h, read-out: DIZ
Staphylococcus aureus [4] = experiment: Antibacterial activity against Staphylococcus aureus ATCC BAA 1026 assessed as growth inhibition at 50 ug/disk after 24 hr by Kirby-Bauer disk diffusion method; assay type: functional; conditions: ATCC BAA 1026, 24 h, read-out: DIZ
Pseudomonas aeruginosa [5] = experiment: Antibacterial activity against Pseudomonas aeruginosa ATCC 10662 assessed as growth inhibition at 25 ug/disk after 24 hr by Kirby-Bauer disk diffusion method; assay type: functional; conditions: ATCC 10662, 24 h, read-out: DIZ
Klebsiella pneumoniae [6] = experiment: Antibacterial activity against Klebsiella pneumoniae ATCC 33495 assessed as growth inhibition at 25 ug/disk after 24 hr by Kirby-Bauer disk diffusion method; assay type: functional; conditions: ATCC 33495, 24 h, read-out: DIZ
Escherichia coli [7] = experiment: Antibacterial activity against Escherichia coli ATCC 10536 assessed as growth inhibition at 25 ug/disk after 24 hr by Kirby-Bauer disk diffusion method; assay type: functional; conditions: ATCC 10536, 24 h, read-out: DIZ
Bacillus subtilis [8] = experiment: Antibacterial activity against Bacillus subtilis ATCC 11774 assessed as growth inhibition at 25 ug/disk after 24 hr by Kirby-Bauer disk diffusion method; assay type: functional; conditions: ATCC 11774, 24 h, read-out: DIZ
Pseudomonas aeruginosa [9] = experiment: Antibacterial activity against Pseudomonas aeruginosa ATCC 10662 assessed as growth inhibition at 50 ug/disk after 24 hr by Kirby-Bauer disk diffusion method; assay type: functional; conditions: ATCC 10662, 24 h, read-out: DIZ
Escherichia coli [10] = experiment: Antibacterial activity against Escherichia coli ATCC 10536 assessed as growth inhibition at 50 ug/disk after 24 hr by Kirby-Bauer disk diffusion method; assay type: functional; conditions: ATCC 10536, 24 h, read-out: DIZ
Bacillus subtilis [11] = experiment: Antibacterial activity against Bacillus subtilis ATCC 11774 assessed as growth inhibition at 50 ug/disk after 24 hr by Kirby-Bauer disk diffusion method; assay type: functional; conditions: ATCC 11774, 24 h, read-out: DIZ
Klebsiella pneumoniae [12] = experiment: Antibacterial activity against Klebsiella pneumoniae ATCC 33495 assessed as growth inhibition at 50 ug/disk after 24 hr by Kirby-Bauer disk diffusion method; assay type: functional; conditions: ATCC 33495, 24 h, read-out: DIZ
Bacillus cereus [13] = experiment: Antibacterial activity against Bacillus cereus ATCC 10876 assessed as growth inhibition at 5 ug/disk after 24 hr by Kirby-Bauer disk diffusion method; assay type: functional; conditions: ATCC 10876, 24 h, read-out: DIZ
Escherichia coli [14] = experiment: Antibacterial activity against Escherichia coli ATCC 10536 assessed as growth inhibition at 5 ug/disk after 24 hr by Kirby-Bauer disk diffusion method; assay type: functional; conditions: ATCC 10536, 24 h, read-out: DIZ
Klebsiella pneumoniae [15] = experiment: Antibacterial activity against Klebsiella pneumoniae ATCC 33495 assessed as growth inhibition at 5 ug/disk after 24 hr by Kirby-Bauer disk diffusion method; assay type: functional; conditions: ATCC 33495, 24 h, read-out: DIZ
Staphylococcus aureus [16] = experiment: Antibacterial activity against Staphylococcus aureus ATCC BAA 1026 assessed as growth inhibition at 5 ug/disk after 24 hr by Kirby-Bauer disk diffusion method; assay type: functional; conditions: ATCC BAA 1026, 24 h, read-out: DIZ
Bacillus subtilis [17] = experiment: Antibacterial activity against Bacillus subtilis ATCC 11774 assessed as growth inhibition at 5 ug/disk after 24 hr by Kirby-Bauer disk diffusion method; assay type: functional; conditions: ATCC 11774, 24 h, read-out: DIZ
Pseudomonas aeruginosa [18] = experiment: Antibacterial activity against Pseudomonas aeruginosa ATCC 10662 assessed as growth inhibition at 5 ug/disk after 24 hr by Kirby-Bauer disk diffusion method; assay type: functional; conditions: ATCC 10662, 24 h, read-out: DIZ
Plasmodium falciparum [19] = experiment: Antimalarial activity against chloroquine-sensitive Plasmodium falciparum 3D7 infected human RBC assessed as dead ring and trophozoite stage of parasite at 0.4 ug/mL after 40 hr by Giemsa staining-based light microscopic analysis relative to control

SMILES	Activity (Plasmodium falciparum [1])	zone of inhibition at 25 µg/disc (Staphylococcus aureus [2])	zone of inhibition at 25 µg/disc (Bacillus cereus [3])	zone of inhibition at 50 µg/disc (Staphylococcus aureus [4])	zone of inhibition at 25 µg/disc (Pseudomonas aeruginosa [5])	zone of inhibition at 25 µg/disc (Klebsiella pneumoniae [6])	zone of inhibition at 25 µg/disc (Escherichia coli [7])	zone of inhibition at 25 µg/disc (Bacillus subtilis [8])	zone of inhibition at 50 µg/disc (Pseudomonas aeruginosa [9])	zone of inhibition at 50 µg/disc (Escherichia coli [10])	zone of inhibition at 50 µg/disc (Bacillus subtilis [11])	zone of inhibition at 50 µg/disc (Klebsiella pneumoniae [12])	zone of inhibition at 5 µg/disc (Bacillus cereus [13])	zone of inhibition at 5 µg/disc (Escherichia coli [14])	zone of inhibition at 5 µg/disc (Klebsiella pneumoniae [15])	zone of inhibition at 5 µg/disc (Staphylococcus aureus [16])	zone of inhibition at 5 µg/disc (Bacillus subtilis [17])	zone of inhibition at 5 µg/disc (Pseudomonas aeruginosa [18])	Activity (Plasmodium falciparum [19])
O=C1CCSC(c2ccccc2F)N1CCCNc1ccnc2cc(Cl)ccc12 (centres undefined)	39%	14.2 mm	14.3 mm	23.9 mm	14.1 mm	14.3 mm	14.3 mm	18.8 mm	–	–	–	–	–	–	–	–	–	–	–
O=C1CCSC(c2cccc(O)c2)N1CCCNc1ccnc2cc(Cl)ccc12 (centres undefined)	39.5%	14.3 mm	14.1 mm	–	13.9 mm	14 mm	13.9 mm	13.8 mm	23.9 mm	24.3 mm	–	–	–	–	–	–	–	–	–
Cc1ccc(C2SCCC(=O)N2CCCNc2ccnc3cc(Cl)ccc23)s1 (centres undefined)	22%	14 mm	13.9 mm	23.9 mm	13.9 mm	13.9 mm	14.2 mm	14.2 mm	–	–	23.9 mm	23.9 mm	–	–	–	–	–	–	–
CC1COc2c(N3CCN(C)CC3)c(F)cc3c(=O)c(C(=O)O)cn1c23 (centres undefined) [OFLOXACIN]	–	–	–	–	–	–	–	–	–	–	–	–	20.3 mm	21.5 mm	20.3 mm	21.7 mm	20.7 mm	20.8 mm	–
CCN(CC)CCCC(C)Nc1ccnc2cc(Cl)ccc12 (centres undefined) [CHLOROQUINE]	–	–	–	–	–	–	–	–	–	–	–	–	–	–	–	–	–	–	67%
CCC1SCCC(=O)N1CCCNc1ccnc2cc(Cl)ccc12 (centres undefined)	18.5%	12.9 mm	13.5 mm	23.1 mm	13.5 mm	13.2 mm	13.7 mm	13.1 mm	23.1 mm	23.4 mm	23.2 mm	23.1 mm	–	–	–	–	–	–	–
COc1ccc(C2SCCC(=O)N2CCCNc2ccnc3cc(Cl)ccc23)cc1 (centres undefined)	32%	14.1 mm	14.3 mm	24.1 mm	14.3 mm	14.1 mm	14.2 mm	14.2 mm	–	24.4 mm	23.3 mm	24.2 mm	–	–	–	–	–	–	–
CN(C)c1ccc(C2SCCC(=O)N2CCCNc2ccnc3cc(Cl)ccc23)cc1 (centres undefined)	25%	13.9 mm	14 mm	23.9 mm	13.7 mm	14.1 mm	14.3 mm	14.3 mm	–	23.9 mm	23.7 mm	24.1 mm	–	–	–	–	–	–	–
O=C1CCSC(c2ccco2)N1CCCNc1ccnc2cc(Cl)ccc12 (centres undefined)	38.5%	14.3 mm	14.2 mm	24.2 mm	13.7 mm	14.2 mm	14 mm	14.1 mm	–	24.1 mm	23.5 mm	24.1 mm	–	–	–	–	–	–	–
